For one assay, the target named is SUV420H1 enzyme (Homo sapiens, UniProt Q4FZB7). Put plainly: TR-FRET SAH SUV420H1 enzyme inhibition assay. In kind it is biochemical. The following applies: Histone Peptide H4(8-30)me1 and SAM, TR-FRET detection of SAH, read-out: TR-FRET SAH_SUV420H1 IC50.
Assay [1] concerns H4K20me3 in PC-3 cells (SUV420H1 cellular activity). Put plainly: H4K20me3 Cellular PD Assay (high content microscopy). The assay is classed as cell-based. The following applies: Homo sapiens, treated for 72 hours, H4K20me3 immunofluorescence, read-out: H4K20me3 Inhibition EC50. Here is the method:
A high content microscopy-based PD assay was used to analyze the decrease of H4K20me3 upon inhibition of SUV420H1 cellular activity. PC-3 cells were plated at 3,000 cells per well in black Collagen I coated 96-well plates (Perkin Elmer, #6005810) in RPMI supplemented with 10% heat inactivated FBS, 1% sodium pyruvate and 1% non-essential amino acids in a 37° C. tissue culture incubator. At 24 hours post seeding, cells were treated with the indicated compounds for 72 hours in an 8-point dose response using half log dilutions from […] and then fixed in 2% formaldhyde (Polysciences, Inc., #04018) for 10 minutes at room temperature. Cells were washed in PBS and permeablized in 0.1% Triton X-100 for 10 minutes at room temperature. After blocking in 1% BSA (Sigma, #A7030) in PBS for 1 hour at room temperature, a mouse monoclonal antibody directed toward H4K20me3 (Santa Cruz, #sc-134216) in antibody dilution buffer (0.3% BSA in PBS) was added for 16 hours at 4° C. Cells were then washed 3 times in PBS and an Alexa Fluor 555 conjugated goat anti-mouse (Life Technologies #A-21424) secondary antibody was added for 1 hour at room temperature. Hoechst 33342 diluted 1:10000 (Life Technologies #H3570) was also added during the secondary antibody incubation. Cells were washed 3 times in PBS and stored in PBS at 4° C. Fluorescent images were acquired within 24 hours on a Cell Insight (Thermo Fisher Scientific) using the Target Activation algorithm. Objects were identified via nuclear Hoescht staining, and changes in average mean intensity in the fluorescent signals of H4K20me3 were quantified using the HCS View software platform (Thermo Fisher Scientific).

pEC50, pIC50: −log10 of the molar value.

Chain of SUV420H1 enzyme (Q4FZB7 whole entry): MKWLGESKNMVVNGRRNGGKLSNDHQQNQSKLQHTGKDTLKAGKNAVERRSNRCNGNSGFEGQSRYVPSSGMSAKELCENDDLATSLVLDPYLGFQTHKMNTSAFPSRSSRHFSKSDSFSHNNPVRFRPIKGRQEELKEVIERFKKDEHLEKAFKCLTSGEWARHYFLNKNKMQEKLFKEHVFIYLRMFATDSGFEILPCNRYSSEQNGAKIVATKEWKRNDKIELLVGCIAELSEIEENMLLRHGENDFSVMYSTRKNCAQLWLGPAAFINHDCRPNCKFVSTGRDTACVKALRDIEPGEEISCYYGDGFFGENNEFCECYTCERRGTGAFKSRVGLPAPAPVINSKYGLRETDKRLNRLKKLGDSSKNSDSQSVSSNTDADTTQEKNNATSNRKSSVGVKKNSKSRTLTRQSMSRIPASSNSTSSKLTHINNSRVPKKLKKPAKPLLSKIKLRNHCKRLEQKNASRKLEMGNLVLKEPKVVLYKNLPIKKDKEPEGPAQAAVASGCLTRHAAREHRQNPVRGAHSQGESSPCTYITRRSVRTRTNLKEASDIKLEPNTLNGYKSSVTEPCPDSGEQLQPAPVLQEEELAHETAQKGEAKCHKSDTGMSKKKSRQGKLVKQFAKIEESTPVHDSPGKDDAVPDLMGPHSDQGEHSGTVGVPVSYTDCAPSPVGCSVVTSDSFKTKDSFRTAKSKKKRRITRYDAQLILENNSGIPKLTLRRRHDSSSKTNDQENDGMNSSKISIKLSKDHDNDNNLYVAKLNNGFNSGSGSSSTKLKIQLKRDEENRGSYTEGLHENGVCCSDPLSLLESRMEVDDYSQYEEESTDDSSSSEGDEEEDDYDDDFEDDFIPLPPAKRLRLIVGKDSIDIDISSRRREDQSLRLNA

As for `O=C(Cn1cc(-c2nnc(NC3CCCC3)c3cc(Cl)c(Cl)cc23)cn1)N1CCC(O)CC1` [Example 64, 2-{4-[6,7-dichloro-4-(cyclopentylamino)phthalazin-1-yl]-1H-pyrazol-1-yl}-1-(4-hydroxypiperidin-1-yl)ethanone], on SUV420H1 enzyme, the negative logarithm of the IC50 (pIC50) (commonly the IC50 on a negative log10 scale, so that one unit is a factor of ten) is 6.73. Moreover, in assay [1], the pEC50 (commonly the EC50 on a negative log10 scale, so that one unit is a factor of ten) was 5.18.

Take `O=C(NCCO)c1nnc(NC2CCCC2)c2cc(Cl)c(Cl)cc12` [Example 66, 6,7-dichloro-4-(cyclopentylamino)-N-(2-hydroxyethyl)phthalazine-1-carboxamide]: the pIC50 at SUV420H1 enzyme is 6.85. Besides, the pEC50 in assay [1] is 5.60.
